The source of these data is ChEMBL document CHEMBL4373747 (ACS Med Chem Lett, 2020).

Each structure is given as a SMILES string. Bounds are passed on as bounds.

Series [1] deals with MV4-11. As to the kind of experiment: Induction of apoptosis in human MV4-11 cells assessed as late apoptotic cells incubated for 18 hrs by annexin V FITC and PI based flow cytometry. It counts as functional, cell-based. Background: In flow cytometry, cells or beads pass a laser one at a time.
For series [2], the system named is MV4-11. As to the kind of experiment: Induction of apoptosis in human MV4-11 cells assessed as late apoptotic cells at 0.25 uM incubated for 18 hrs by annexin V FITC and PI based flow cytometry (reference value: 9.2 to 9.63 %). It counts as functional.
Series [3] concerns MV4-11. The series is described as follows: Cytotoxicity against human MV4-11 cells assessed as reduction in cell viability incubated for 72 hrs by cell-titer blue assay. It counts as functional, cell-based. The settings on record: MV4-11, 72 h.
Series [4] deals with MV4-11. The series is described as follows: Induction of apoptosis in human MV4-11 cells assessed as viable cells at 1 uM incubated for 18 hrs by annexin V FITC and PI based flow cytometry (reference value: 53.01 to 53.07 %). It counts as functional.
For series [5], the system named is MV4-11. The series is described as follows: Induction of apoptosis in human MV4-11 cells assessed as late apoptotic cells at 1 uM incubated for 18 hrs by annexin V FITC and PI based flow cytometry (reference value: 9.2 to 9.63 %). It counts as functional.
The test system of series [6] is MV4-11. The series is described as follows: Induction of apoptosis in human MV4-11 cells assessed as early apoptotic cells at 0.25 uM incubated for 18 hrs by annexin V FITC and PI based flow cytometry (reference value: 19.46 to 22.17 %). It counts as functional.
In series [7] the test system is MV4-11. The series is described as follows: Induction of apoptosis in human MV4-11 cells assessed as early apoptotic cells at 4 uM incubated for 18 hrs by annexin V FITC and PI based flow cytometry (reference value: 19.46 to 22.17 %). It counts as functional.
The test system of series [8] is MV4-11. As to the kind of experiment: Induction of apoptosis in human MV4-11 cells assessed as viable cells at 0.25 uM incubated for 18 hrs by annexin V FITC and PI based flow cytometry (reference value: 53.01 to 53.07 %). It counts as functional.
Series [9] has as its system MV4-11. As to the kind of experiment: Induction of apoptosis in human MV4-11 cells assessed as viable cells at 0.5 uM incubated for 18 hrs by annexin V FITC and PI based flow cytometry (reference value: 53.01 to 53.07 %). It counts as functional.
Series [10] concerns MV4-11. The series is described as follows: Induction of apoptosis in human MV4-11 cells assessed as late apoptotic cells at 0.5 uM incubated for 18 hrs by annexin V FITC and PI based flow cytometry (reference value: 9.2 to 9.63 %). It counts as functional.
Series [11] concerns MV4-11. The series is described as follows: Induction of apoptosis in human MV4-11 cells assessed as viable cells at 2 uM incubated for 18 hrs by annexin V FITC and PI based flow cytometry (reference value: 53.01 to 53.07 %). It counts as functional.
For series [12], the system named is MV4-11. As to the kind of experiment: Induction of apoptosis in human MV4-11 cells assessed as late apoptotic cells at 4 uM incubated for 18 hrs by annexin V FITC and PI based flow cytometry (reference value: 9.2 to 9.63 %). It counts as functional.
Series [13] relates to MV4-11. The series is described as follows: Induction of apoptosis in human MV4-11 cells assessed as late apoptotic cells at 2 uM incubated for 18 hrs by annexin V FITC and PI based flow cytometry (reference value: 9.2 to 9.63 %). It counts as functional.
Series [14] in a line: Oral bioavailability in Balb/c nude mouse at 50 mg/kg measured upto 24 hrs by LC/MS/MS analysis. It counts as ADME, organism-based. The settings on record: in vivo.
For series [15], the system named is MV4-11. The series is described as follows: Induction of apoptosis in human MV4-11 cells assessed as early apoptotic cells at 1 uM incubated for 18 hrs by annexin V FITC and PI based flow cytometry (reference value: 19.46 to 22.17 %). It counts as functional.
Series [16] has as its system MV4-11. The series is described as follows: Induction of apoptosis in human MV4-11 cells assessed as viable cells at 4 uM incubated for 18 hrs by annexin V FITC and PI based flow cytometry (reference value: 53.01 to 53.07 %). It counts as functional.
Series [17] has as its system MV4-11. The series is described as follows: Induction of apoptosis in human MV4-11 cells assessed as early apoptotic cells at 2 uM incubated for 18 hrs by annexin V FITC and PI based flow cytometry (reference value: 19.46 to 22.17 %). It counts as functional.
In series [18] the test system is MV4-11. As to the kind of experiment: Induction of apoptosis in human MV4-11 cells assessed as early apoptotic cells at 0.5 uM incubated for 18 hrs by annexin V FITC and PI based flow cytometry (reference value: 19.46 to 22.17 %). It counts as functional.
Series [19] in a line: Intrinsic clearance in ICR/CD1 mouse hepatocytes at 1 uM measured upto 120 mins by LCMS analysis. It counts as ADME, cell-based, Hepatocyte. To be noted: 2 h.
For the next series, the system named is MOLM-13. As to the kind of experiment: Cytotoxicity against human MOLM13 cells assessed as reduction in cell viability incubated for 72 hrs by cell-titer blue assay. It counts as functional, cell-based. The settings on record: MOLM-13, 72 h.
A further series has as its system MDA-MB-231. As to the kind of experiment: Cytotoxicity against human MDA-MB-231 cells assessed as reduction in cell viability incubated for 72 hrs by cell-titer blue assay. It counts as functional, cell-based. The settings on record: MDA-MB-231, 72 h.
Series [20] can be described thus: Cytotoxicity against human MRC9 cells assessed as reduction in cell viability incubated for 72 hrs by cell-titer blue assay. It counts as cell-based. The settings on record: MRC9, 72 h.
Series [21] in a line: Protein binding in CD-1 mouse plasma at 1 uM incubated for 6 hrs by LCMS analysis. It counts as ADME, cell-free. To be noted: mouse, 6 h, 1 µM.
Series [22] has as its target T1, Protein deacetylase HDAC6 (Homo sapiens, UniProt Q9UBN7).
T1 sequence (Q9UBN7 whole entry): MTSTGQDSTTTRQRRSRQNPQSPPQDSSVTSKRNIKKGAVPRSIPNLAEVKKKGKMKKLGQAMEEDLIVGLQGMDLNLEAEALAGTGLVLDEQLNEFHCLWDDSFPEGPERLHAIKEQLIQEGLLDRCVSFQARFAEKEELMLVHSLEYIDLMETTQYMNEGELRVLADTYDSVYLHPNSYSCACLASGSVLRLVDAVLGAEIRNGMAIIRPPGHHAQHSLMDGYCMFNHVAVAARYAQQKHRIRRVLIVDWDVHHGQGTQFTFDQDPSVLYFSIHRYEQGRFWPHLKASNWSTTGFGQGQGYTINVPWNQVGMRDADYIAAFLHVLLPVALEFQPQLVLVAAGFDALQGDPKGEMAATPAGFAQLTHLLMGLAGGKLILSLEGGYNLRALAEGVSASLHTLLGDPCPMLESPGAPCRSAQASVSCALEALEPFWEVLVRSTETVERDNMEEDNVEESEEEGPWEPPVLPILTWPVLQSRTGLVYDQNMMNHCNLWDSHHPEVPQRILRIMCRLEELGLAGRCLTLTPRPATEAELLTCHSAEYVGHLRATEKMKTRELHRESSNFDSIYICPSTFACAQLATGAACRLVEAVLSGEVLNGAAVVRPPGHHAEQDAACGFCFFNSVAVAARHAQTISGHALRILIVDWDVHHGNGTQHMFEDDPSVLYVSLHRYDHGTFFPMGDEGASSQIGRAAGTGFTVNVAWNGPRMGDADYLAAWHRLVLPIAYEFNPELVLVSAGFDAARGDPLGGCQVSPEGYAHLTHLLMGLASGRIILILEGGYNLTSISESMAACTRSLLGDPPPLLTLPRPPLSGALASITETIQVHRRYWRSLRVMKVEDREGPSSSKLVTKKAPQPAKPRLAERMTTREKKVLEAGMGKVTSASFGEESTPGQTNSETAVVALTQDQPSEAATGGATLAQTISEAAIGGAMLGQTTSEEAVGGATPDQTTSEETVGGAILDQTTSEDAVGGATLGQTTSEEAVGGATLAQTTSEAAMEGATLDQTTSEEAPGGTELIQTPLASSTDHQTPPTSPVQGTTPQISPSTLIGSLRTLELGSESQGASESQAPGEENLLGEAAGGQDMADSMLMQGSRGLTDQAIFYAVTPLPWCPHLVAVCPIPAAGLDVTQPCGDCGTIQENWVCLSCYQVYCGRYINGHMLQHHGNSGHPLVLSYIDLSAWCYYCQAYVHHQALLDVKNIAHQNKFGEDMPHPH
The series is described as follows: Inhibition of recombinant full length human HDAC6 expressed in baculovirus infected Sf9 cells assessed as inhibitory constant using FAM-RHKK-Ac as substrate incubated for 5 hrs by electrophoretic mobility shift assay. (In general: A gel shift assay detects complexes by their altered migration in electrophoresis.)

The next series has as its target T2, Histone deacetylase 8 (Homo sapiens, UniProt Q9BY41).
T2 sequence (Q9BY41 whole entry): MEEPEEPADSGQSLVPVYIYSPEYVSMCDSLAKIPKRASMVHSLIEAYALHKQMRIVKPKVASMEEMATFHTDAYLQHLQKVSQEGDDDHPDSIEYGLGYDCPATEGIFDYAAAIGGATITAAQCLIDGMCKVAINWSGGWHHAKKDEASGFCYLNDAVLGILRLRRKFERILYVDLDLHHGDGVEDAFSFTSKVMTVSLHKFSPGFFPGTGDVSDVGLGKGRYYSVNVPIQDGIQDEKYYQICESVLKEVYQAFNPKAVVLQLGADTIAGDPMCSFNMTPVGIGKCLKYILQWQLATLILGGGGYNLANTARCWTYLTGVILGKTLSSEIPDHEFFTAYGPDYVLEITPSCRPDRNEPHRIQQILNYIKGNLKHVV
The series is described as follows: Inhibition of recombinant full length human HDAC8 expressed in baculovirus infected Sf9 cells using FAM-RHKK-TFAc as substrate incubated for 3 hrs by electrophoretic mobility shift assay.

Series [23] can be described thus: Stability in CD-1 mouse hepatocytes assessed as compound remaining at 1 uM measured up to 6 hrs by LCMS analysis. It counts as ADME, cell-based, Hepatocyte. The settings on record: CD-1, mouse, read-out: Stability.
The nature of series [24]: Efflux ratio of apparent permeability in human Caco2 cells incubated for 2 hrs by LC/MS analysis. It counts as ADME, cell-based, Caco-2. To be noted: caco-2, 2 h. (In general: Caco-2 cells form a polarised layer with tight junctions and transporters.)
Series [25] is described as follows: Apparent permeability from apical to basolateral side in human Caco2 cells incubated for 2 hrs by LC/MS analysis. It counts as ADME, cell-based, Caco-2. The settings on record: caco-2, 2 h.
In another series the test system is MDA-MB-468. The series is described as follows: Cytotoxicity against human MDA-MB-468 cells assessed as reduction in cell viability incubated for 72 hrs by cell-titer blue assay. It counts as functional, cell-based. To be noted: MDA-MB-468, 72 h.

Consider `O=C(CCCCCCC(=O)Nc1ccccc1)NO` [VORINOSTAT], for which the Activity entry in the series with MV4-11 [1] is “Dose-dependent effect”; in the series on MV4-11 [2] it was 12.72%; in the series with MV4-11 [4] it was 28.82%; with MV4-11 [5], 27.29%; in the series with MV4-11 [6] it was 19.79%; with MV4-11 [7], 35.44%. Besides, the Activity in the series on MV4-11 [8] amounted to 51.83%; with MV4-11 [9], 38.87%; in the series on MV4-11 [10] it was 11.46%; in the series with MV4-11 [11], 24.13%; with MV4-11 [12] it was 26.52%; with MV4-11 [13], 30.07%. The Activity in the series with MV4-11 [15] is reported as 24.22%; with MV4-11 [16], 20.37%; in the series on MV4-11 [17], 35.72%; in the series with MV4-11 [18], 15.37%. Moreover, the IC50 in the series with MV4-11 [3] stood at 0.31 µM. The compound further displayed a bioavailability in [14] of 8%.
Consider `CC(C)(C)c1ccc(CN(C(=O)CN(Cc2c(F)c(F)c(F)c(F)c2F)S(=O)(=O)c2ccc(F)cc2)c2ccc(C(=O)NO)cc2)cc1`, for which the CLH in series [19] is 36 µL/min. The IC50 was 1.88 µM with MV4-11 [3]; 2.1 µM in the series on MOLM-13; 2.62 µM in the series with MDA-MB-231; 19.2 µM in [20]; more than 1 µM at Histone deacetylase 8; 4.21 µM with MDA-MB-468. The compound also displayed a PPB in [21] of 99.6%. In addition, the Ki in series [22] amounted to 3.6 µM. Besides, the remaining at 6 h, 1 µM in [23] stood at 20%. In series [24], the Ratio is 3.83. Also, the Papp in series [25] is reported as 0.27 ×10⁻⁶ cm/s.

As a reminder, the IC50 is the concentration needed to halve the response being measured. As a reminder, the bioavailability is the share of a dose that reaches the circulation, judged against a reference dose that is usually intravenous. A high value points to good availability. What is called Ki is a measure of affinity in units of concentration, obtained from inhibition or displacement. As usually defined, the Papp is a coefficient for how fast a substance crosses the barrier.
